Measured values: patent publication US9795607B2, “Substituted pyrrolopyrimidine compounds, compositions thereof, and methods of treatment therewith” (Signal Pharmaceutical, LLC, priority 2013, dated 2017)
pIC50: −log10 of the molar value. Read-outs that look alike come from different tables or passages of the source.

System: Triple negative breast cancer cell line CAL51
Assay: Cell Titer Glo proliferation assay, CAL51
Format: cell-based
Settings: Homo sapiens, CAL-51, read-out: Act. Level
Description: Cell Titer Glo Proliferation Assay.
Triple negative breast cancer cell line CAL51 was purchased from DSMZ. […] Allcell lines were maintained in growth media consisting of 90% high glucose Dulbecco's Modified Eagle Medium or RPMI1640 (Invitrogen), 10% fetal bovine serum (Hyclone), and 2 mM L-glutamine (Invitrogen). […] After overnight culture, compound stock (30 mM) was diluted serially in DMSO, further diluted in growth media, and was added to each well as a 10× concentrated solution in a volume of 11 μL, mixed, and allowed to incubate with cells. The compound vehicle (DMSO) was maintained at a final concentration of 0.2% in all wells. After 72 h, 100 μL of Cell Titer Glo solution (Promega) was added to each well of the 96-well plate. The plate was placed on a shaker for 2 minutes. After 10 minutes incubation, the luminescence signal was detected with Envision microplate reader (Perkin Elmer).

[1] = CAL51 cell proliferation, Cell Titer Glo
[2] = CAL51 cell proliferation (Table 1)

Row | pIC50 [1] | pIC50 [2] | SMILES
1 | > 7.00 | – | COc1cc(C(=O)NC2CN(C)C2)ccc1Nc1nc(OC2CC2)c2c(-c3ccc4nc(C)oc4c3)c[nH]c2n1 [Example 363, 4-(4-cyclopropoxy-5-(2-methylbenzo[d]oxazol-6-yl)-7H-pyrrolo[2,3-d]pyrimidin-2-ylamino)-3-methoxy-N-(1-methylazetidin-3-yl)benzamide]
2 | – | > 7.00 | CCc1cc(C(=O)NC)ccc1Nc1nc(OC2CCOCC2)c2c(-c3ccc4nc(C)oc4c3)c[nH]c2n1 [Example 435, 3-ethyl-N-methyl-4-(5-(2-methylbenzo[d]oxazol-6-yl)-4-(tetrahydro-2H-pyran-4-yloxy)-7H-pyrrolo[2,3-d]pyrimidin-2-ylamino)benzamide]
3 | – | > 7.00 | CNC(=O)c1ccc(Nc2nc(NC3CCOCC3)c3c(-c4ccc5nc(C)oc5c4)c[nH]c3n2)c(Cl)c1 [Example 430, 3-chloro-N-methyl-4-(5-(2-methylbenzo[d]oxazol-6-yl)-4-(tetrahydro-2H-pyran-4-ylamino)-7H-pyrrolo[2,3-d]pyrimidin-2-ylamino)benzamide]
4 | – | > 7.00 | Cc1nc2ccc(-c3c[nH]c4nc(Nc5ccc(C(=O)NC6COC6)cc5Cl)nc(OC5CCOCC5)c34)cc2o1 [Example 438, 3-chloro-4-(5-(2-methylbenzo[d]oxazol-6-yl)-4-(tetrahydro-2H-pyran-4-yloxy)-7H-pyrrolo[2,3-d]pyrimidin-2-ylamino)-N-(oxetan-3-yl)benzamide]
5 | 6.00 to 6.40 | – | COc1cc(C(=O)N2CC2C)ccc1Nc1nc(OC2CCCC2)c2c(-c3ccc4nc(C)oc4c3)c[nH]c2n1 [Example 335, (R)-(4-(4-(cyclopentyloxy)-5-(2-methylbenzo[d]oxazol-6-yl)-7H-pyrrolo[2,3-d]pyrimidin-2-ylamino)-3-methoxyphenyl)(2-methylaziridin-1-yl)methanone]
6 | – | > 7.00 | CNC(=O)c1ccc(-c2c[nH]c3nc(Nc4ccc(C(=O)NC)cc4Cl)nc(OC4CCOCC4)c23)cc1 [Example 421, 3-chloro-N-methyl-4-(5-(4-(methylcarbamoyl)phenyl)-4-(tetrahydro-2H-pyran-4-yloxy)-7H-pyrrolo[2,3-d]pyrimidin-2-ylamino)benzamide]
7 | > 7.00 | – | COc1cc(C(=O)NC2CN(C)C2)ccc1Nc1nc(O[C@H]2CCOC2)c2c(-c3ccc4nc(C)oc4c3)c[nH]c2n1 [Example 374, (S)-3-methoxy-N-(1-methylazetidin-3-yl)-4-(5-(2-methylbenzo[d]oxazol-6-yl)-4-(tetrahydrofuran-3-yloxy)-7H-pyrrolo[2,3-d]pyrimidin-2-ylamino)benzamide]
8 | 6.40 to 7.00 | – | COc1cc(C(=O)N2C[C@H]2CO)ccc1Nc1nc(OC2CCCC2)c2c(-c3ccc4nc(C)oc4c3)c[nH]c2n1 [Example 350, (S)-(4-(4-(cyclopentyloxy)-5-(2-methylbenzo[d]oxazol-6-yl)-7H-pyrrolo[2,3-d]pyrimidin-2-ylamino)-3-methoxyphenyl)(2-(hydroxymethyl)aziridin-1-yl)methanone]

Further lines, the compound ahead of its results:

Row | SMILES | pIC50 [1] | pIC50 [2]
9 | CNC(=O)c1ccc(-c2c[nH]c3nc(Nc4ccc(C(=O)NC5COC5)cc4OC)nc(OC4CCC(C)(O)CC4)c23)cc1 (stereo not shown) [Example 337, 4-(4-((1s,4s)-4-hydroxy-4-methylcyclohexyloxy)-5-(4-(methylcarbamoyl)phenyl)-7H-pyrrolo[2,3-d]pyrimidin-2-ylamino)-3-methoxy-N-(oxetan-3-yl)benzamide] | > 7.00 | –
10 | COc1cc(C(=O)N2C[C@@H]2CO)ccc1Nc1nc(OC2CCCC2)c2c(-c3ccc4nc(C)oc4c3)c[nH]c2n1 [Example 346, (R)-(4-(4-(cyclopentyloxy)-5-(2-methylbenzo[d]oxazol-6-yl)-7H-pyrrolo[2,3-d]pyrimidin-2-ylamino)-3-methoxyphenyl)(2-(hydroxymethyl)aziridin-1-yl)methanone] | 6.40 to 7.00 | –
11 | CNC(=O)c1ccc(Nc2nc(OC3CCCC3)c3c(-c4ccc(F)cc4C)c[nH]c3n2)c(OC)c1 [Example 319, 4-(4-(cyclopentyloxy)-5-(4-fluoro-2-methylphenyl)-7H-pyrrolo[2,3-d]pyrimidin-2-ylamino)-3-methoxy-N-methylbenzamide] | 5.00 to 6.00 | –
12 | COc1cc(C(=O)NC2COC2)ccc1Nc1nc(OC)c2c(-c3ccnnc3)c[nH]c2n1 [Example 405, 3-methoxy-4-(4-methoxy-5-(pyridazin-4-yl)-7H-pyrrolo[2,3-d]pyrimidin-2-ylamino)-N-(oxetan-3-yl)benzamide] | – | 6.00 to 6.40
13 | CNC(=O)c1ccc(Nc2nc(OC3CCCC3)c3c(-c4ccc(C(=O)OC)cc4)c[nH]c3n2)c(OC)c1 [Example 318, methyl 4-(4-(cyclopentyloxy)-2-(2-methoxy-4-(methylcarbamoyl)phenylamino)-7H-pyrrolo[2,3-d]pyrimidin-5-yl)benzoate] | 5.00 to 6.00 | –
14 | CNC(=O)c1ccc(Nc2nc(OC3CCCC3)c3c(-c4cccc(C#N)c4)c[nH]c3n2)c(OC)c1 [Example 324, 4-(5-(3-cyanophenyl)-4-(cyclopentyloxy)-7H-pyrrolo[2,3-d]pyrimidin-2-ylamino)-3-methoxy-N-methylbenzamide] | 5.00 to 6.00 | –
15 | COc1cc(C(=O)NC2COC2)ccc1Nc1nc(OC)c2c(-c3cn(C)nc3C)c[nH]c2n1 [Example 387, 4-(5-(1,3-dimethyl-1H-pyrazol-4-yl)-4-methoxy-7H-pyrrolo[2,3-d]pyrimidin-2-ylamino)-3-methoxy-N-(oxetan-3-yl)benzamide] | 5.00 to 6.00 | –
16 | COc1cc(C(=O)NC2COC2)ccc1Nc1nc(OC)c2c(-c3cn(C)nc3Cl)c[nH]c2n1 [Example 417, 4-(5-(3-chloro-1-methyl-1H-pyrazol-4-yl)-4-methoxy-7H-pyrrolo[2,3-d]pyrimidin-2-ylamino)-3-methoxy-N-(oxetan-3-yl)benzamide] | – | 5.00 to 6.00
17 | COc1cc(C(=O)NC2COC2)ccc1Nc1nc(OC)c2c(-c3ccnc(Cl)c3)c[nH]c2n1 [Example 394, 4-(5-(2-chloropyridin-4-yl)-4-methoxy-7H-pyrrolo[2,3-d]pyrimidin-2-ylamino)-3-methoxy-N-(oxetan-3-yl)benzamide] | 6.40 to 7.00 | –
18 | Cc1nc2ccc(-c3c[nH]c4nc(Nc5cnn(CC(C)(C)O)c5Cl)nc(OC5CCCC5)c34)cc2o1 [Example 371, 1-(5-chloro-4-(4-(cyclopentyloxy)-5-(2-methylbenzo[d]oxazol-6-yl)-7H-pyrrolo[2,3-d]pyrimidin-2-ylamino)-1H-pyrazol-1-yl)-2-methylpropan-2-ol] | > 7.00 | –
19 | COc1cc(C(=O)NC2COC2)ccc1Nc1nc(OC)c2c(-c3ccnc(F)c3)c[nH]c2n1 [Example 381, 4-(5-(2-fluoropyridin-4-yl)-4-methoxy-7H-pyrrolo[2,3-d]pyrimidin-2-ylamino)-3-methoxy-N-(oxetan-3-yl)benzamide] | 6.40 to 7.00 | –
20 | Cc1nc2ccc(-c3c[nH]c4nc(Nc5cnn(C6CCOCC6)c5Cl)nc(OC5CCCC5)c34)cc2o1 [Example 377, N-(5-chloro-1-(tetrahydro-2H-pyran-4-yl)-1H-pyrazol-4-yl)-4-(cyclopentyloxy)-5-(2-methylbenzo[d]oxazol-6-yl)-7H-pyrrolo[2,3-d]pyrimidin-2-amine] | > 7.00 | –
21 | COc1cc(C(=O)N(C)C)ncc1Nc1nc(OC)c2c(-c3ccnc(F)c3)c[nH]c2n1 [Example 415, 5-(5-(2-fluoropyridin-4-yl)-4-methoxy-7H-pyrrolo[2,3-d]pyrimidin-2-ylamino)-4-methoxy-N,N-dimethylpicolinamide] | – | 6.00 to 6.40
22 | COc1nc(Nc2ccc(C(=O)NC3COC3)cc2C)nc2[nH]cc(-c3ccncc3)c12 [Example 396, 4-(4-methoxy-5-(pyridin-4-yl)-7H-pyrrolo[2,3-d]pyrimidin-2-ylamino)-3-methyl-N-(oxetan-3 yl)benzamide] | 6.40 to 7.00 | –
23 | CNC(=O)c1ccc(-c2c[nH]c3nc(Nc4ccc(C(=O)NC5CN(C)C5)cc4OC)nc(OC4CCC4)c23)cc1 [Example 348, 4-(4-cyclobutoxy-5-(4-(methylcarbamoyl)phenyl)-7H-pyrrolo[2,3-d]pyrimidin-2-ylamino)-3-methoxy-N-(1-methylazetidin-3-yl)benzamide] | 6.40 to 7.00 | –
24 | COc1nc(Nc2ccc(C(=O)N(C)C)cc2C)nc2[nH]cc(-c3ccc(F)cc3)c12 [Example 390, 4-(5-(4-fluorophenyl)-4-methoxy-7H-pyrrolo[2,3-d]pyrimidin-2-ylamino)-N,N,3-trimethylbenzamide] | 5.00 to 6.00 | –
25 | CNC(=O)c1ccc(-c2c[nH]c3nc(Nc4ccc(C(=O)NC5COC5)cc4Cl)nc(OC4CCC4)c23)cc1 [Example 333, 3-chloro-4-(4-cyclobutoxy-5-(4-(methylcarbamoyl)phenyl)-7H-pyrrolo[2,3-d]pyrimidin-2-ylamino)-N-(oxetan-3-yl)benzamide] | > 7.00 | –
26 | COCCOc1nc(Nc2ccc(C(=O)NC3COC3)cc2OC)nc2[nH]cc(-c3ccc4nc(C)oc4c3)c12 [Example 365, 3-methoxy-4-(4-(2-methoxyethoxy)-5-(2-methylbenzo[d]oxazol-6-yl)-7H-pyrrolo[2,3-d]pyrimidin-2-ylamino)-N-(oxetan-3-yl)benzamide] | > 7.00 | –
27 | CNC(=O)c1ccc(-c2c[nH]c3nc(Nc4ccc(C(=O)NC)cc4Cl)nc(NC4CCOCC4)c23)cc1 [Example 433, 3-chloro-N-methyl-4-(5-(4-(methylcarbamoyl)phenyl)-4-(tetrahydro-2H-pyran-4-ylamino)-7H-pyrrolo[2,3-d]pyrimidin-2-ylamino)benzamide] | – | > 7.00
28 | COc1cc(C(=O)N(C)C)ccc1Nc1nc(OC)c2c(-c3ccncc3)c[nH]c2n1 [Example 392, 3-methoxy-4-(4-methoxy-5-(pyridin-4-yl)-7H-pyrrolo[2,3-d]pyrimidin-2-ylamino)-N,N-dimethylbenzamide] | > 7.00 | –
